# Laboratory results: patent publication US9926375B2, “Anti-endoglin antibodies and uses thereof” (Tracon Pharmaceuticals, Inc., priority 2014, dated 2018)
# T1: human endoglin (Homo sapiens, UniProt P17813)
# T1 sequence (P17813 26-658): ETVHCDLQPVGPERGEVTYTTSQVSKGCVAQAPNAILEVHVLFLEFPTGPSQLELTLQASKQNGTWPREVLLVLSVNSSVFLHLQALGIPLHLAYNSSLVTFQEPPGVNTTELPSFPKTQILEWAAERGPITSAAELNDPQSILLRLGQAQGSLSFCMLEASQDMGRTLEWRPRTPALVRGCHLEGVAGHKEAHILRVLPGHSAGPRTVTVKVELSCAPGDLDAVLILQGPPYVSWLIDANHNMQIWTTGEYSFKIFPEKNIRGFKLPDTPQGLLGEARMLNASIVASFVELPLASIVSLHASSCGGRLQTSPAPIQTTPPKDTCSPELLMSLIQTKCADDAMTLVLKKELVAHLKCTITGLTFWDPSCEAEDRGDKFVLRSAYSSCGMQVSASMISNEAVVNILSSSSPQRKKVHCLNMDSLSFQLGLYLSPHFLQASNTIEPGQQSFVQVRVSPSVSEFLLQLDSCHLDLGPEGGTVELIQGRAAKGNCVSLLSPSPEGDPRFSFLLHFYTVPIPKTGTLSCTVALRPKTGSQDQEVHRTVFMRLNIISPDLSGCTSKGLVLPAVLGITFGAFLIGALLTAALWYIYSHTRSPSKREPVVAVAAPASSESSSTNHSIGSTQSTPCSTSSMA
# Legend:
# NASH mice = assay: Murine model of non-alcoholic steatohepatitis (NASH; STZ and high fat diet); assay type: in vivo, mouse
# Excerpt: The purpose of this study was to examine the protective effects of endoglin antibodies on a murine model of NASH.
# NASH was established by a single subcutaneous injection of STZ (Sigma, USA) after birth and feeding with a high fat diet (HFD; CLEA Japan, Japan) ad libitum after 4 weeks of age (day 28±2).
# Randomization of mice into 6 groups of 10 mice was done at 9 weeks of age (day 63±2), the day before the start of treatment.
# Group 3 (Positive control; Temlisartan Group): Ten NASH mice were be orally administered pure water supplemented with telmisartan at a dose of 10 mg/kg once daily from day 63 to 84.
# Group 4 (Antibody M1043: M1043 Group): Ten NASH mice were intravenously administered vehicle supplemented with Antibody M1043 at a dose of 10 mg/kg twice weekly at day 63, 66, 70, 73, 77 and 80.
# Group 5 (Antibody TRC105; TRC105 Group): Ten NASH mice were intravenously administered vehicle supplemented with Antibody TRC105 at a dose of 10 mg/kg twice weekly at day 63, 66, 70, 73, 77 and 80.
# Group 6 (Antibody TRC205; TRC205 Group): Ten NASH mice were intravenously administered vehicle supplemented with Antibody TRC205 at a dose of 10 mg/kg twice weekly at days 63, 66, 70, 73, 77 and 80.
# Mice in all groups were terminated for the following assays at 12 weeks of age.
# H&E staining of liver tissue was conducted to estimate NAFLD Activity score.
# Total NAS score represents the sum of scores for steatosis, lobular inflammation, and ballooning, and ranges from 0-8. Diagnosis of NASH (or, alternatively, fatty liver not diagnostic of NASH) should be made first, then NAS is used to grade activity. In the reference study, NAS scores of 0-2 occurred in cases largely considered not diagnostic of NASH, scores of 3-4 were evenly divided among those considered not diagnostic, borderline, or positive for NASH. Scores of 5-8 occurred in cases that were largely considered diagnostic of NASH.
# Statistical tests were performed using Bonferroni Multiple Comparison Test. P values<0.05 were considered statistically significant.
# [1] = system: peripheral blood mononuclear cells (PBMCs); assay: EpiScreen time course T cell proliferation assay with intact anti-endoglin antibodies; assay type: cell-based, human
# Excerpt: This example describes a method of screening anti-endoglin antibodies for T-cell epitopes. The interaction between MHC, polypeptide and T cell receptor (TCR) provides the structural basis for the antigen specificity of T cell recognition. T cell proliferation assays test the binding of polypeptides processed from antibodies to MHC and the recognition of MHC/polypeptide complexes by the TCR. In vitro T cell proliferation assays of the present example, involve the stimulation of peripheral blood mononuclear cells (PBMCs), containing antigen presenting cells (APCs) and T cells. Stimulation is conducted in vitro using intact anti-endoglin antibodies. Stimulated T cell proliferation is measured using ^3H-thymidine (^3H-Thy) and the presence of incorporated ^3H-Thymidine is assessed using scintillation counting of washed fixed cells.
# Anti-endoglin antibodies were purified from the supernatants of mammalian cultures by protein A chromatography. Buffer exchange and protein concentration was done using PBS pH=7.4. Anti-endoglin antibody was further purified by size exclusion chromatography using a Sephacryl S200 column (GE Healthcare, AMersham, UK). The major peak is collected, filter sterilized and shown to have endotoxin levels <5 EU/mg using an Endosafe-PTS (Charles River, Margate, UK). The purified antibodies are stored at 4 degrees Celsius. Final concentrations were determined by UV absorption using calculated molar extinction coefficients, where A280 1.0=1.62 mg/mL. Each antibody was then diluted to 100 μg/mL in AIMV culture medium.
# Peripheral Blood Mononuclear cells (PBMC) are isolated from healthy community donor buffy coats (from blood drawn within 24 hours) which are obtained from the UK National Blood Transfusion Service (Addenbrooke's Hospital, Cambridge, UK) according to approval granted by Addenbrooke's Hospital Local Research Ethics Committee. PBMC are isolated from buffy coats by Lymphoprep (Axis-shield, Dundee, Scotland) density centrifugation and CD8+ T cells are depleted using CD8+ RossetteSep™ (StemCell Technologies, Inc.). Donors are characterized by identifying HLA-DR haplotypes using a Biotest HLA SSP-PCR based tissue-typing kit (Biotest, Landsteinerstralβe, […]). T cell responses to a control antigen, Keyhole Limpet Haemocyanin (KLH) (Pierce, Rockford, Ill., USA) are determined for a positive control. PBMC were then frozen and stored in liquid nitrogen until required. When required for use, cells are thawed rapidly in a water bath at 37° C. before transferring to 10 ml pre-warmed AIM V medium.
# A cohort of 20 donors is selected to best represent the number and frequency of HLA-DR allotypes expressed in the world population. […]
# PBMCs from each donor are thawed, counted and viability assessed. […]
# human endoglin = biological target: T1, human endoglin; assay: BIAcore (surface plasmon resonance) analysis of anti-endoglin antibody binding; conditions: antibody captured on protein A chip, 25 degrees Celsius
# Experimental: Affinity of antibodies can be assessed using, for example, BIAcore analysis using standard protocols. Briefly, protein A is chemically coupled to a BIAcore CM5 chip, with the amount of protein A immobilized corresponding to 2000 RU. Subsequent steps are performed in a running buffer of 10 mM HEPES, 150 mM NaCl, 3 mM EDTA, 0.05% TWEEN, pH=7.4, at 25 degrees Celsius using a 10 Hz data collection rate. Anti-endoglin antibody (10 nM) is captured at a 10 μL/min flow rate by the immobilized protein A on the BIAcore chip: typically, capture times of 20, 40 and 80 seconds allow the capture of antibody densities corresponding to 130 RU, 330 RU and 570 RU, respectively. Start-up cycles are performed using running buffer at a flow rate of 40 μL/min, a contact time of 90 seconds and a dissociation time of 90 seconds. Sample cycles are performed using recombinant endoglin at concentrations ranging from 0 to 40 nM. Endoglin is passed over the BIAcore chip containing captured antibody at a flow rate of 40 μL/min with a contact time of 525 seconds and dissociation time of 2500 seconds. Eight sample cycles are typically performed at each antibody capture density. Regeneration of the chip is accomplished using 10 mM glycine pH=1.7. Data analysis is performed using BIAcore T100 Evaluation Software v1.1 Signals generated using BIAcore chips with different captured antibody densities are compared and data generated in the absence of recombinant endoglin are used to adjust for the intraassay blank signal. For fitting of the data, the Rmax is allowed to float to account for variation in capture levels of each antibody in each cycle. Data from each capture density is fitted simultaneously during analysis of each antibody. BIAcore data are presented in Table 2 for chimeric, humanized and deimmunized anti-endoglin antibodies, including ka (1/Ms), kd (1/s), KD (M) and Chi^2 (RU^2).
# [2] = liver gene expression, mean ± SD, Normal-Vehicle 1.0
molecule,measurement,setting,value
"CCCc1nc2c(C)cc(-c3nc4ccccc4n3C)cc2n1Cc1ccc(-c2ccccc2C(=O)O)cc1 [Telmisartan, telmisartan, reference compound]",Alpha-smooth muscle actin mRNA expression levels compared with the NASH-Vehicle group,"NASH mice; Bonferroni, P<0.05",significantly down-regulated
same,Liver triglyceride contents compared with the NASH-Vehicle group,"NASH mice; Bonferroni, P<0.05",significant decreases
same,Macrophage chemoattractant protein-1 mRNA expression levels compared with the NASH-Vehicle group,"NASH mice; Bonferroni, P<0.05",tended to decrease
same,Mean liver weight compared with the NASH-Vehicle group,"NASH mice; Bonferroni, P<0.05",significant decrease
same,Mean liver-to-body weight ratio compared with the NASH-Vehicle group,"NASH mice; Bonferroni, P<0.05",significant decreases
same,NAS compared with the NASH-Vehicle group,"NASH mice; Bonferroni, P<0.05",significant decreases in NAS
same,Serum alanine aminotransferase (ALT) levels compared with the NASH-Vehicle group,"NASH mice; Bonferroni, P<0.05",tended to decrease
same,Sirius red-positive area compared with the NASH-Vehicle group,"NASH mice; Bonferroni, P<0.05",significant decrease
same,F4/80-positive signals and cells in liver compared with the NASH-Vehicle group,"NASH mice; F4/80 immunostaining, macrophage marker",No obvious changes
same,Alpha-SMA mRNA expression,NASH mice; [2],0.7 ± 0.3
same,MCP-1 mRNA expression,NASH mice; [2],1.5 ± 1.1
same,TIMP-1 mRNA expression,NASH mice; [2],5.8 ± 3.7
same,TNF-α mRNA expression,NASH mice; [2],3.2 ± 2.3
same,Liver triglyceride,NASH mice; mean ± SD,23.5 ± 10.6 mg/g liver
same,Serum ALP,NASH mice; mean ± SD,444 ± 134 U/L
same,Serum ALT,NASH mice; mean ± SD,29 ± 15 U/L
same,Serum AST,NASH mice; mean ± SD,113 ± 32 U/L
same,Sirius red-positive area,"NASH mice; mean ± SD, liver sections",0.67 ± 0.12%
same,NAS (NAFLD Activity score),"NASH mice; mean ± SD, range 0-8, 10 mg/kg",3.3 ± 1.2
same,"Lobular inflammation score 0, number of mice",NASH mice; score 0 = No Foci,3
same,"Hepatocyte ballooning score 0, number of mice",NASH mice; score 0 = None,1
same,"Steatosis score 1, number of mice",NASH mice; score 1 = 5-33%,9
same,"Lobular inflammation score 1, number of mice",NASH mice; score 1 = <2 foci/200x,4
same,"Hepatocyte ballooning score 1, number of mice",NASH mice; score 1 = Few balloon cells,3
same,"Lobular inflammation score 2, number of mice",NASH mice; score 2 = 2-4 foci/200x,2
same,"Hepatocyte ballooning score 2, number of mice",NASH mice; score 2 = Many cells/prominent ballooning,5
"VK1VH1: humanized anti-endoglin antibody (antibody, V domains shown) VH: EVQLVESGGGLVKPGGSLRLSCAASGFTFSDAWMDWVRQAPGKGLEWVGEIRSKASNHATYYAESVKGRFTISRDDSKNTLYLQMNSLKTEDTAVYYCTRWRRFFDSWGQGTLVTVSS VL: DIQMTQSPSSLSASVGDRVTITCRASSSVSYMHWYQQKPGKAPKPWIYATSNLASGVPSRFSGSGSGTDYTLTISSLQPEDFATYYCQQWSSNPLTFGGGTKVEIK","Responding donors, % of the study cohort","[1]; cohort of 20 donors, 50 μg/mL antibody",10%
same,Stimulation index (borderline response),[1]; donor 20,1.91
same,Donors with positive T cell proliferation responses,"[1]; of 20 donors, 50 μg/mL antibody, SI≥2 (borderline ≥1.90), p<0.05",2
"VK1AAVH1R: humanized/deimmunized anti-endoglin antibody (antibody, V domains shown) VH: EVQLVESGGGLVKPGGSLRLSCAASGFTFSDAWMDWVRQAPGKGLEWVGEIRSRASNHATYYAESVKGRFTISRDDSKNTLYLQMNSLKTEDTAVYYCTRWRRFFDSWGQGTLVTVSS VL: DIQMTQSPSSLSASVGDRATITCRASSSVSYMHWYQQKPGKAPKPWAYATSNLASGVPSRFSGSGSGTDYTLTISSLQPEDFATYYCQQWSSNPLTFGGGTKVEIK",ka,human endoglin,64000 M⁻¹ s⁻¹
same,kd,human endoglin,3.41e-05 s⁻¹
"VK1AAVH1Q: humanized/deimmunized anti-endoglin antibody (antibody, V domains shown) VH: EVQLVESGGGLVKPGGSLRLSCAASGFTFSDAWMDWVRQAPGKGLEWVGEIRSQASNHATYYAESVKGRFTISRDDSKNTLYLQMNSLKTEDTAVYYCTRWRRFFDSWGQGTLVTVSS VL: DIQMTQSPSSLSASVGDRATITCRASSSVSYMHWYQQKPGKAPKPWAYATSNLASGVPSRFSGSGSGTDYTLTISSLQPEDFATYYCQQWSSNPLTFGGGTKVEIK",ka,human endoglin,35600 M⁻¹ s⁻¹
same,kd,human endoglin,3.03e-05 s⁻¹
